# Measured values as given in US20060276464A1, “Diarylsulfone sulfonamides and use thereof” (Wyeth, priority 2005, published 2006).
# Where two headings read alike, the source gives them in different places.
# Molecular target: T1, SFRP-1 (Homo sapiens, UniProt Q8N474)
# T1 sequence (Q8N474 32-314): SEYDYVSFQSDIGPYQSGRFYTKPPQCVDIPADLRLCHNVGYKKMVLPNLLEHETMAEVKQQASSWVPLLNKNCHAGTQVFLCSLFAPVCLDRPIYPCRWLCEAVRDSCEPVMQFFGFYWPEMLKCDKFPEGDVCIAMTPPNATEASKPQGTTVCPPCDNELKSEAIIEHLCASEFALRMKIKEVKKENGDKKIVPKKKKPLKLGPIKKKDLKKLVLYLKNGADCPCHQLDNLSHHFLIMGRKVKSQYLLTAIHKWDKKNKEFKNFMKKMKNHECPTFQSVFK
# Assay: Cell-based assay for in vitro measurement of SFRP-1/SARP2 antagonist activity (U2OS cells co-transfected with 16x TCF-tk-Luciferase reporter, Wnt and hSFRP-1);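 note: U2OS cells co-transfected with a TCF-tk luciferase reporter, a Wnt vector, hSFRP-1 or empty vector and CMV-βgal, luciferase luminescence read in cell lysates alongside βgal activity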
# Details: U2OS
# [1] = read-out: Fold Induction with SFRP-1, Conc 15 μM, with SFRP-1, fold induction over SFRP-1 control, single dose
# [2] = read-out: Fold Induction without SFRP-1, Conc 15 μM, without SFRP-1, single dose
# [3] = read-out: Fold Induction with SFRP-1, Conc 15 μM, single dose, luciferase reporter, fold induction over SFRP-1 control, cells with SFRP-1
# [4] = read-out: Fold Induction without SFRP-1, Conc 15 μM, single dose, luciferase reporter, cells without SFRP-1 (specificity control)
fold induction at 15 µM [1],fold induction at 15 µM [2],fold induction at 15 µM [3],fold induction at 15 µM [4],Structure (SMILES)
1.1,1,,,"O=S(=O)(NCCc1ccccn1)c1cc(S(=O)(=O)c2ccc(F)cc2)ccc1C1CCCCC1 [Example 460, 2-cyclohexyl-5-[(4-fluorophenyl)sulfonyl]-N-(2-pyridin-2-ylethyl)benzenesulfonamide]"
3.6,1.1,,,"COCC(=O)N1CCC(NS(=O)(=O)c2cc(S(=O)(=O)c3ccccc3)ccc2C)CC1 [Example 469, N-[1-(methoxyacetyl)piperidin-4-yl]-2-methyl-5-(phenylsulfonyl)benzenesulfonamide]"
0.9,0.9,,,"Cc1ccc(S(=O)(=O)c2ccccc2)c(C)c1S(=O)(=O)NCCc1ccccn1 [Example 472, 2,6-dimethyl-3-(phenylsulfonyl)-N-(2-pyridin-2-ylethyl)benzenesulfonamide]"
2.1,1.1,,,"CC(=O)N1CCC(NS(=O)(=O)c2cc(S(=O)(=O)c3ccccc3)ccc2C)CC1 [Example 479, N-(1-acetylpiperidin-4-yl)-2-methyl-5-(phenylsulfonyl)benzenesulfonamide]"
,,1.6,1.2,"Cc1ccc(S(=O)(=O)c2cc(Cl)cc(C#N)c2)cc1S(=O)(=O)NCCc1ccccn1 [Example 492, 5-[(3-chloro-5-cyanophenyl)sulfonyl]-2-methyl-N-(2-pyridin-2-ylethyl)benzenesulfonamide]"
,,1,1.1,"Cc1c(S(=O)(=O)NCCCn2ccnc2)cccc1S(=O)(=O)c1ccccc1 [Example 493, N-[3-(1H-imidazol-1-yl)propyl]-2-methyl-3-(phenylsulfonyl)benzenesulfonamide]"
,,1,1.1,"Cc1c(S(=O)(=O)NCCc2ccccn2)cccc1S(=O)(=O)c1ccccc1 [Example 494, 2-methyl-3-(phenylsulfonyl)-N-(2-pyridin-2-ylethyl)benzenesulfonamide]"
,,1.8,1,"CC(C)c1ccc(S(=O)(=O)c2ccc3c(c2)C(C)(C)OC(=O)N3)cc1S(=O)(=O)NCCc1ccccn1 [Example 515, 5-[(4,4-dimethyl-2-oxo-1,4-dihydro-2H-3,1-benzoxazin-6-yl)sulfonyl]-2-isopropyl-N-(2-pyridin-2-ylethyl)benzenesulfonamide]"
,,1.4,1.2,"CCCc1ccc(S(=O)(=O)c2ccccc2)cc1S(N)(=O)=O [Example 557, 5-(Phenylsulfonyl)-2-propylbenzenesulfonamide]"
,,2.6,1,"CC(C)c1ccc(S(=O)(=O)c2ccc(F)cc2)cc1S(=O)(=O)NCCO [Example 582, 5-[(4-fluorophenyl)sulfonyl]-N-(2-hydroxyethyl)-2-isopropylbenzenesulfonamide]"
,,2,0.9,"CN(C)c1ccc(S(=O)(=O)c2ccccc2)cc1S(=O)(=O)NCCc1ccccn1 [Example 601, 2-(dimethylamino)-5-(phenylsulfonyl)-N-(2-pyridin-2-ylethyl)benzenesulfonamide]"

# Further lines, the compound ahead of its results:
Structure (SMILES),fold induction at 15 µM [1],fold induction at 15 µM [2],fold induction at 15 µM [3],fold induction at 15 µM [4]
"Cc1ccc(S(=O)(=O)c2ccccc2)cc1S(=O)(=O)NC1CCN(C(=O)Cc2ccccc2)CC1 [Example 470, 2-methyl-N-[1-(phenylacetyl)piperidin-4-yl]-5-(phenylsulfonyl)benzenesulfonamide]",1.6,1.1,,
"Cc1ccc(S(=O)(=O)c2ccccc2)c(C)c1S(=O)(=O)NC1CCOCC1 [Example 473, 2,6-dimethyl-3-(phenylsulfonyl)-N-(tetrahydro-2H-pyran-4-yl)benzenesulfonamide]",0.9,0.9,,
"Cc1ccc(S(=O)(=O)c2ccccc2)cc1S(=O)(=O)NC1CCN(C(=O)C2CC2)CC1 [Example 475, N-[1-(cyclopropylcarbonyl)piperidin-4-yl]-2-methyl-5-(phenylsulfonyl)benzenesulfonamide]",1.9,1.1,,
"Cc1ccc(S(=O)(=O)c2ccccc2)cc1S(=O)(=O)NC1CCN(S(=O)(=O)c2cccc3c(N(C)C)cccc23)CC1 [Example 483, N-(1-{[5-(dimethylamino)-1-naphthyl]sulfonyl}piperidin-4-yl)-2-methyl-5-(phenylsulfonyl)benzenesulfonamide]",2.9,1,,
"Cc1ccc(S(=O)(=O)c2ccccc2)cc1S(=O)(=O)NC1CCN(C(=O)NC2CCCCC2)CC1 [Example 491, N-cyclohexyl-4-({[2-methyl-5-(phenylsulfonyl)phenyl]sulfonyl}amino)piperidine-1-carboxamide]",,,1.1,1
"Cc1c(S(=O)(=O)NCCN2CCOCC2)cccc1S(=O)(=O)c1ccccc1 [Example 495, 2-methyl-N-(2-morpholin-4-ylethyl)-3-(phenylsulfonyl)benzenesulfonamide]",,,1.1,1.3
"Cc1ccc(S(=O)(=O)c2ccccc2)cc1S(=O)(=O)NC1CCN(C(=O)Oc2ccc(F)cc2)CC1 [Example 500, 4-fluorophenyl 4-({[2-methyl-5-(phenylsulfonyl)phenyl]sulfonyl}amino)piperidine-1-carboxylate]",,,1.6,0.8
"CC(C)c1ccc(S(=O)(=O)c2ccc(F)cc2)cc1S(=O)(=O)NC1CC1 [Example 521, N-cyclopropyl-5-[(4-fluorophenyl)sulfonyl]-2-isopropylbenzenesulfonamide]",,,1.7,1
"CC(C)c1ccc(S(=O)(=O)c2ccc(F)cc2)cc1S(=O)(=O)NC1CCC1 [Example 522, N-cyclobutyl-5-[(4-fluorophenyl)sulfonyl]-2-isopropylbenzenesulfonamide]",,,1.4,0.9
"CC(C)c1ccc(S(=O)(=O)c2ccc(F)cc2)cc1S(=O)(=O)NC1CCCCC1 [Example 524, N-cyclohexyl-5-[(4-fluorophenyl)sulfonyl]-2-isopropylbenzenesulfonamide]",,,1.4,1
"CC(C)c1ccc(S(=O)(=O)c2ccc(F)cc2)cc1S(=O)(=O)NCCN1CCCCC1 [Example 527, 5-[(4-fluorophenyl)sulfonyl]-2-isopropyl-N-(2-piperidin-1-ylethyl)benzenesulfonamide]",,,2.3,1.2
"CC(C)c1ccc(S(=O)(=O)c2ccc(F)cc2)cc1S(=O)(=O)NC1CCN(C(=S)Nc2ccc3c(c2)C(=O)OC32c3ccc(O)cc3Oc3cc(O)ccc32)CC1 [Example 538, N-(3′,6′-dihydroxy-3-oxo-3H-spiro[2-benzofuran-1,9′-xanthen]-5-yl)-4-[({5-[(4-fluorophenyl)sulfonyl]-2-isopropylphenyl}sulfonyl)amino]piperidine-1-carbothioamide]",,,2.4,1.1
"CCCc1ccc(S(=O)(=O)c2ccc(F)cc2)cc1S(N)(=O)=O [Example 566, 5-[(4-Fluorophenyl)sulfonyl]-2-propylbenzenesulfonamide]",,,1.5,1.3
"Cc1ccc(S(=O)(=O)c2ccc(F)cc2)cc1S(=O)(=O)NC1CCNCC1 [Example 576, 5-[(4-fluorophenyl)sulfonyl]-2-methyl-N-piperidin-4-ylbenzenesulfonamide]",,,3,1.2
"Cc1ccc(S(=O)(=O)c2ccc(F)cc2)cc1S(=O)(=O)N(C(=O)C1CC1)C1CCN(C(=O)C2CC2)CC1 [Example 602, N-[1-(cyclopropylcarbonyl)piperidin-4-yl]-N-({5-[(4-fluorophenyl)sulfonyl]-2-methylphenyl}sulfonyl)cyclopropanecarboxamide]",,,1.3,1.1
"O=S(=O)(NC1CCOCC1)c1cc(S(=O)(=O)c2ccc(F)cc2)ccc1Cl [Example 622, 2-chloro-5-[(4-fluorophenyl)sulfonyl]-N-(tetrahydro-2H-pyran-4-yl)benzenesulfonamide]",,,2.7,1.1
"CC(C)(C)OC(=O)N1CCC(NS(=O)(=O)c2cc(S(=O)(=O)c3ccccc3)ccc2Cl)CC1 [Example 623, tert-butyl 4-({[2-chloro-5-(phenylsulfonyl)phenyl]sulfonyl}amino)piperidine-1-carboxylate]",,,2.2,1.1
"O=S(=O)(NC1CCNCC1)c1cc(S(=O)(=O)c2ccccc2)ccc1Cl [Example 624, 2-chloro-5-(phenylsulfonyl)-N-piperidin-4-ylbenzenesulfonamide]",,,2.7,1.2
"O=S(=O)(c1ccccc1)c1ccc(Cl)c(S(=O)(=O)N2CCC(N3CCCC3)CC2)c1 [Example 635, 1-{[2-chloro-5-(phenylsulfonyl)phenyl]sulfonyl}-4-pyrrolidin-1-ylpiperidine]",,,2,1.7
"O=S(=O)(c1ccccc1)c1ccc(Cl)c(S(=O)(=O)N2CCN(CCN3CCOCC3)CC2)c1 [Example 636, 4-[2-(4-{[2-chloro-5-(phenylsulfonyl)phenyl]sulfonyl}piperazin-1-yl)ethyl]morpholine]",,,1.7,1.1
